Assays:
recombinant Tat = biological target: T1, recombinant Tat (Human immunodeficiency virus type 1 group M subtype B, UniProt P69697); assay: DARTS assay (protection from proteinase K); type: binding, HIV-1; settings: 20 min room temperature, Western blot
T1 construct: pTatC6H-1 (NIH AIDS Reagent Program) plasmid encoding C-terminal 6xHistidine Tat1-86 (HXB3, subtype B); made in house; host or cells: E. coli BL21 (plasmid pTatC6H-1, NIH AIDS Reagent Program)
Procedure: To confirm that dCA stabilizes Tat structure, we performed drug affinity responsive target stability (DARTS) assays to measure the protection against proteolysis conferred on the target protein by interaction with a small molecule. For this purpose, we incubated Tat with several concentrations of dCA and different concentrations of proteinase K (PK) for 20 min at room temperature. PK digests proteins preferably after hydrophobic, aliphatic, and aromatic residues. The protection was determined by Western blotting with an anti-His antibody (Fig. 5B). Tat alone was proportionally degraded with increasing concentrations of PK. […] Both the fluorescence assays and the DARTS assays support the notion that dCA stabilizes Tat protein.
dCA or an analog of dCA (analog 2) was incubated with 30 ng of recombinant Tat for 20 min at room temperature. Then PK (Ambion) was added at different concentrations. The remaining Tat was quantified by Western blotting using polyclonal anti-Tat antibodies (AIDS Reagent Program) at a 1:2,000 dilution.

[1] = MTT viability assay, 72 h; type: cell-based; settings: human, HeLa-CD4-LTR-LacZ cells, mean ± SD, n = 2 to 3
Procedure: The assay was performed with MTT [3-(4,5-dimethyl-2-thiazolyl)-2,5-diphenyl-2H-tetrazolium bromide] as described in reference.

FLAG-Tat = biological target: T2, FLAG-Tat (Human immunodeficiency virus type 1 group M subtype B, UniProt P69697); assay: Confocal immunofluorescence of FLAG-Tat subcellular localization; type: cell-based, HIV-1; settings: 100 nM dCA, HeLa-CD4-LTR-Luc cells
T2 construct: expressed in transfected cells; host or cells: HeLa-CD4-LTR-Luc
Description: If dCA were to bind the basic domain of Tat in its disordered form, then one would predict it might also bind to other basic peptide sequences and block their functions. The two well-known proteins that share a similar basic domain with Tat are HIV-1 Rev protein and the cellular protein Hexim-1 (Fig. 3A). As such, we investigated whether dCA could inhibit these similar basic domain functions. The basic domain of Rev is responsible for its nuclear localization ([31]); therefore, we assessed whether dCA could impact the subcellular localization of Rev (Fig. 3B) as previously shown for Tat ([10]). We transfected HeLa-CD4-LTR-Luc cells with a plasmid expressing FLAG-tagged Rev and assessed Rev localization in the presence of 100 nM dCA. […] Twenty-four hours later, cells were collected, and total, nuclear, and cytoplasmic mRNAs were extracted, reverse transcribed, and quantified by quantitative real-time PCR (qRT-PCR).
(A) Sequence of the basic domains of HIV Tat HXB3, HIV Rev Bru and intracellular Hexim-1. […] (C) Quantification of the nucleolar fluorescence of panel B using ImageJ. […] Total, nuclear, and cytoplasmic mRNAs were extracted, and viral messages were determined by qRT-PCR. […] (G) Quantification of nuclear fluorescence of panel F using ImageJ. […] Statistical significance was determined using one-way ANOVA with post hoc Tukey’s test. ns, not significant; ***, P < 0.0001; **, P < 0.001. […]

T1 sequence (P69697 whole entry): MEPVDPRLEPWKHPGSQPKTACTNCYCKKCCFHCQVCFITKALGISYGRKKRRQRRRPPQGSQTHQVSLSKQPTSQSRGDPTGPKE
T2 sequence (P69697 whole entry): as above

**Q.** With CN(C)C1CC23CCC4(O2)C(=CCC2(C)C(c5ccc6ccncc6c5)=CCC24)C=C3C(O)C1O (stereo not drawn) [dCA, didehydro-cortistatin A] as the molecule, how does the “protection of Tat from proteinase K degradation” value (recombinant Tat) read?
**A.** Tat degradation by PK was significantly reduced

**Q.** What about the CC50 at 72 h [1] of the same molecule?
**A.** 20 µM

**Q.** What about the “subcellular localization of Tat” value (FLAG-Tat) of the same molecule?
**A.** significant redistribution of Tat to the periphery of the nucleolus
